# Laboratory results from patent publication US20240238459A1, “Granzyme-Activatable Membrane-Interacting Peptides and Methods of Use” (priority 2021, published 2024).
# Peptide text beside a SMILES is read from it. * marks the point of attachment. DOTA = O=C(O)CN1CCN(CC(=O)O)CCN(CC(=O)*)CCN(CC(=O)O)CC1; Ahx = NCCCCCC(=O)O
# Legend:
# [1] = test system: M. marinum; test: PET in M. marinum myositis model; type: in vivo, mouse
# Excerpt: (§1) Neither M. marinum nor the L. monoctyogenes induced ^64Cu-GRIP B uptake in live bacterial abscesses compared to heat killed controls.
# [2] = test system: L. monoctyogenes; test: PET in L. monoctyogenes myositis model; type: in vivo, mouse
# Excerpt: as §1
# [3] = test system: P. aeruginosa; test: PET in P. aeruginosa myositis model; type: in vivo, mouse
# Excerpt: Performing additional myositis studies with other bacterial strains yielded unexpected and variable granzyme “responses” on PET. […] In both mouse cohorts, radiotracer uptake in the treated muscles was higher than in the normal muscle.
# [4] = test system: subcutaneous CT26 tumors; test: PET/CT, biodistribution and autoradiography in mice bearing CT26 tumors treated with vehicle or CPI
# Description: (§2) The effect of immunomodulatory therapies on ^64Cu-GRIP B biodistribution was next evaluated in mice bearing subcutaneous CT26 tumors, a mouse colorectal cancer cell line that responds to immunomodulatory therapy. Mice were treated with three intraperitoneal infusions of vehicle or anti-PD1 plus anti-CTLA4 CPIs over 11 days. The radiotracer was injected on day 14, and tumor uptake was monitored over several time points out to 24 hours post injection on PET.
# (§3) A biodistribution study at 2 hours post injection was performed to determine relative changes in tracer uptake between tissues in the vehicle and treated groups.
# (§4) All animal experiments were approved by the Institutional Animal Care and Use Committee at UCSF. Four to six week old male or female balb/c mice and C57BL6/J mice were purchased from Jackson Laboratory and housed with free access to the water and food. All mice were inoculated with 5×10^6 CT26, MC38, or EMT6 cells in a mixture of media and Matrigel (Corning) (v/v 1:1) subcutaneously into the left shoulder. Anti-mouse PD-1 (CD279) (BE0146) and anti-mouse CTLA-4 (CD152) (BE0164) were purchased from Bio X Cell and stored at 4° C. during the treatment studies. Mice bearing subcutaneous tumors were received anti-mouse CTLA-4 (200 ug) or/and anti-mouse PD-1 (200 ug) and as a combination therapy or PBS as the vehicle on days 5, 8, 11 following the tumor inoculation. Mice were weighed and the tumor volume were measured with calipers on the same day of the treatment. On day 14, all mice were used for PET/CT or BioD studies.
# (§5) ^64Cu-L-GRIP B or ^64Cu-D-GRIP B (˜100 μCi/mouse) in 100-150 μL of 10% DMSO and 10% Tween 80 in saline was injected via tail vein. After a period of uptake time, mice were anesthetized with isoflurane (˜2%), and imaged with a microPET/CT scanner (Inveon, Siemens). For static imaging, mice were scanned for 30 min for PET data acquisition and 10 min for CT data acquisition. For the dynamic acquisitions, the mice were anesthetized, positioned on the scanner bed, and injected intravenously with radiotracer. The dynamic acquisition was performed for scanned for 60 min followed by a 10 min CT acquisition.
# (§6) At dedicated time points post radiotracer injection, mice were euthanized with CO2(g) asphyxiation, and the blood was collected by direct cardiac puncture. Tissues were harvested, weighed and counted on a gamma counter (Hidex). The amount of radioactivity in the tissues was determined by comparison with a standard of known activity. The samples were decay-corrected and expressed as the percentage of the injected dose/weight of the harvested tissues (% ID/g).
# (§7) Tumors or designated tissue were flash frozen in OCT in dry ice. The tissues were sectioned with a microtome (Leica) into slices with 10-20 um thickness and directly mounted on glass slides (VWR). GE Storage Phosphor Screen were exposed by such slides with radioactive tissue. After 10 half-live of copper-64, the screen was developed on a phosphorimager (Typhoon 9400). The images were further analyzed by using Fiji software.
# [5] = as above; settings: both, mouse, in vivo, iv, total radioactivity
# Description: as §2, §3, §4, §5, §6, §7
# [6] = test system: MC38; test: Biodistribution and PET/CT in mice bearing MC38 tumors treated with vehicle or CPI; type: in vivo, mouse; settings: MC38 cohort, biodistribution
# Description: Next, the biodistribution of ^64Cu-GRIP B and ^64Cu-D-GRIP B was compared in mice bearing MC38 (mouse colorectal cancer) or EMT6 (mouse mammary breast carcinoma) xenografts. The mice were treated with vehicle or anti-PD1 and anti-CTLA4 CPIs following the schema used for the CT26 cohort.
# [7] = test system: E. coli; test: PET in E. coli myositis model (live vs heat killed, vs LPS); type: in vivo, mouse
# Description: ^64Cu-GRIP B was also tested to determine whether it can detect granzyme B secreted from activated immune cells attempting to combat bacterial infections. A cohort of mice bearing bilateral deltoid implants of live E. coli or heat killed E. coli was established to test the kinetics of tracer uptake (FIG. 10).
# Next, the granzyme B responses to live E. coli versus treatment with a bolus of the endotoxin LPS were compared. Three to four hours after implantation, mice received ^64Cu-GRIP B and were imaged serially (FIG. 12).
# [8] = test system: E. coli; test: PET/CT and biodistribution in E. coli myositis in germline GZMB knockout mice; type: in vivo, mouse
# Description: To confirm the radiotracer uptake in the abscess was due to granzyme B, imaging studies were performed in germline GZMB knockout mice. The mice received live and heat killed E. Coli and were injected and imaged following the same protocol for wild type mice.
# [9] = biodistribution at 2 hours post injection
structure (smiles),measurement,setting,value
"CC[C@H](C)[C@H](NC(=O)[C@H](CCCCN)NC(=O)CNC(=O)[C@H](CC(C)C)NC(=O)[C@H](Cc1ccccc1)NC(=O)[C@H](CCCCN)NC(=O)[C@H](CO)NC(=O)[C@H](Cc1ccccc1)NC(=O)[C@H](Cc1c[nH]c2ccccc12)NC(=O)[C@H](CCC(N)=O)NC(=O)[C@@H](NC(=O)[C@H](Cc1ccccc1)NC(=O)CCCCCNC(=O)CN1CCN(CC(=O)O)CCN(CC(=O)O)CCN(CC(=O)O)CC1)C(C)C)C(=O)N[C@@H](CCC(=O)O)C(=O)N1CCC[C@H]1C(=O)N[C@@H](CC(=O)O)C(=O)N[C@H](C(=O)N[C@@H](CO)C(=O)N[C@@H](CCC(N)=O)C(=O)N[C@H](C(=O)N[C@@H](CCC(N)=O)C(=O)N[C@@H](CC(=O)O)C(=O)N1CCC[C@H]1C(=O)N[C@@H](CC(N)=O)C(=O)N[C@@H](CC(=O)O)C(=O)N[C@@H](CCC(N)=O)C(=O)N[C@@H](Cc1ccc(O)cc1)C(=O)N[C@@H](CCC(=O)O)C(=O)N1CCC[C@H]1C(=O)N[C@@H](Cc1ccccc1)C(=O)O)C(C)C)C(C)C [^64Cu-GRIP B, metal not drawn] ({DOTA-Ahx}-FVQWFSKFLGKIEPDVSQVQDPNDQYEPF-OH)",radiotracer uptake compared to normal muscle,[1],significant increase
same,uptake in live bacterial abscesses compared to heat killed controls,[1],did not impact
same,radiotracer uptake compared to normal muscle,[2],significant increase
same,uptake in live bacterial abscesses compared to heat killed controls,[2],did not impact
same,uptake in treated muscles versus normal muscle,[3],higher
same,uptake in live bacterial infection versus contralateral heat killed bacteria,[3]; deltoid muscles,higher
same,time course of uptake in treated tumors,"[4]; CPI (anti-PD1 plus anti-CTLA4) treated, static PET/CT ROI analysis",steadily rose from 0.5 to 2-4 hours post injection
same,persistence of radioactivity in tumors,"[4]; CPI treated, PET",persisted in tumors out to 24 hours post injection
same,"digital autoradiography signal, treated versus control tumor","[4]; CT26 tumor slices, co-aligned with GZMB and CD3",significantly higher
same,"tumoral uptake, CPI versus vehicle treated arm","[4]; PET, 2 hours post injection",significantly higher
same,"induction of radiotracer uptake in tumors, treated compared to control mice",[4]; [9],~50%
same,"tracer uptake within the spleen, treated versus vehicle",[4]; [9],significant increase
same,radiotracer uptake in vehicle tumors by comparison with CPI treated,"[4]; vehicle treated mice, dynamic PET",significantly lower and did not change over time
same,correlation of tumor to blood ratios with percent change in tumor volume,"[4]; wild type mice, day 11",significantly correlated
same,correlation of tumoral uptake with percent change in tumor volume,"[4]; wild type mice, day 11 compared to day 0",significantly correlated
same,tissue uptake per volume at 10 min,[5],~5 %ID/mL
same,tumoral uptake after CPI compared to controls,[6],significant increase
same,uptake in live abscess compared to site of heat killed bacterial implantation,"[7]; E. coli, bilateral deltoid implants",significantly higher
same,time course of tracer uptake in the myositis lesion,[7]; live E. coli deltoid implant,increased out to 5 hours and persisted to at least 24 hours post injection
same,"radiotracer uptake, live E. coli abscess versus bolus of LPS","[7]; tracer three to four hours after implantation, serial imaging",differences in radiotracer uptake were detected from 6-24 hours post injection
same,"uptake in infected muscle, GZMB knockout compared to wild type",[8]; PET/CT and biodistribution,lower
same,"difference in tracer uptake between normal muscle, live and heat killed E. Coli treated muscle",[8]; knockout strain,negligible difference
